The source made the active and inactive calls. No cut-off for these calls is given here.
Assays:
[1] = tested on: Rattus norvegicus; assay: Decrease in fed plasma insulin level in Zucker rat sub-chronic fa/fa prediabetic model assessed as change in plasma insulin level at 10 mg/kg, po qd for 4 days measured on day 5 relative to control; format: functional; parameters: scale not given: the % may be the effect or the level left
[2] = target: Estrogen receptor beta (Homo sapiens, UniProt Q92731); assay: Inhibition of fluormone ES2 binding to recombinant full length human ERbeta expressed in insect cells by fluorescence polarization assay
[3] = organism: Cavia porcellus; assay: Inhibition of veratridine binding to Dunkin Hartley guinea pig atria sodium channel site 2 (unknown origin) at 10 uM relative to control
[4] = Volume of distribution at steady state in Sprague-Dawley rat at 2 mg/kg, iv by LC-MS analysis; format: ADME, organism-based; conditions: in vivo, read-out: Vdss
[5] = Cmax in Sprague-Dawley rat at 10 mg/kg administered via oral gavage by LC-MS analysis; format: ADME, organism-based; parameters: dose 10 mg/kg, route oral; conditions: in vivo
[6] = Tmax in […] at 15 mg/kg administered via oral gavage by LC-MS analysis; format: ADME, organism-based; conditions: in vivo
[7] = AUC (0 to 24 hrs) in […] at 15 mg/kg administered via oral gavage by LC-MS analysis; format: ADME, organism-based; parameters: dose 15 mg/kg, time < 24 hr, route oral; conditions: in vivo
[8] = tested on: Rattus norvegicus; assay: Antidiabetic activity in Zucker rat sub-chronic fa/fa prediabetic model assessed as reduction in blood glucose AUC (0 to 120 min) at 1 mg/kg, po qd for 31 days measured on day 29 post dose by OGTT relative to control; format: functional; parameters: scale not given: the % may be the effect or the level left
[9] = Cmax in Zucker rat sub-chronic fa/fa prediabetic model at 50 mg/kg, po qd measured on day 1 post dose; format: ADME, organism-based; parameters: dose 50 mg/kg, route oral; conditions: in vivo
[10] = AUC (0 to 24 hrs) in Zucker rat sub-chronic fa/fa prediabetic model at 1 mg/kg, po qd for 26 days measured on day 26 post last dose; format: ADME, organism-based; parameters: time < 24 hr, dose 1 mg/kg, route oral; conditions: in vivo
[11] = tested on: Rattus norvegicus; assay: Toxicity in Zucker rat sub-chronic fa/fa prediabetic model assessed as body weight at 3 mg/kg, po qd for 29 days measured on day 29 post last dose (reference value: 533 +/- 10 g); format: organism-based; conditions: in vivo, 696 h
[12] = tested on: Rattus norvegicus; assay: Toxicity in Zucker rat sub-chronic fa/fa prediabetic model assessed as food intake at 3 mg/kg, po qd for 29 days measured on day 1 to 29 during compound dosing (reference value: 969 +/- 18 g); format: organism-based; conditions: in vivo, 696 h
[13] = tested on: Rattus norvegicus; assay: Toxicity in Zucker rat sub-chronic fa/fa prediabetic model assessed as epididymal white adipose tissue weight at 1 mg/kg, po qd for 31 days measured on day 32 (reference value: 13.9 +/- 0.6 g); format: organism-based; conditions: in vivo, 744 h
[14] = tested on: Rattus norvegicus; assay: Toxicity in Zucker rat sub-chronic fa/fa prediabetic model assessed as epididymal white adipose tissue weight at 10 mg/kg, po qd for 31 days measured on day 32 (reference value: 13.9 +/- 0.6 g); format: organism-based; conditions: in vivo, 744 h
[15] = tested on: Rattus norvegicus; assay: Toxicity in Zucker rat sub-chronic fa/fa prediabetic model assessed as serum AST level at 1 mg/kg, po qd for 31 days measured on day 32 (reference value: 187 +/- 37 U/L); format: organism-based; conditions: in vivo, 744 h
[16] = tested on: Rattus norvegicus; assay: Toxicity in Zucker rat sub-chronic fa/fa prediabetic model assessed as serum AST level at 10 mg/kg, po qd for 31 days measured on day 32 (reference value: 187 +/- 37 U/L); format: organism-based; conditions: in vivo, 744 h
[17] = tested on: Rattus norvegicus; assay: Toxicity in Zucker rat sub-chronic fa/fa prediabetic model assessed as serum creatinine level at 10 mg/kg, po qd for 31 days measured on day 32 (reference value: 0.71 +/- 0.07 mg/dl); format: organism-based; conditions: in vivo, 744 h
[18] = tested on: Rattus norvegicus; format: functional, Zucker
[19] = tested on: Rattus norvegicus; assay: Antidiabetic activity in […] model assessed as HbA1C level at 50 mg/kg, po qd for 31 days measured on day 32 post dose (reference value: 5.9 +/- 0.18%); format: functional
[20] = Cmax in […] chronic ob/ob model at 3 mg/kg, po qd for 28 days measured on day 28 post last dose; format: ADME, organism-based; parameters: dose 3 mg/kg, route oral; conditions: in vivo
[21] = tested on: Rattus norvegicus; assay: Toxicity in […] chronic ob/ob model assessed as body weight at 3 mg/kg, po qd for 28 days measured on day 28 post last dose (reference value: 47.3 +/- 1.06 g); format: organism-based; conditions: in vivo, 672 h
[22] = tested on: Rattus norvegicus; assay: Toxicity in […] chronic ob/ob model assessed as food intake at 3 mg/kg, po qd for 28 days measured on day 1 to 28 during compound dosing (reference value: 170.6 +/- 3 g); format: organism-based; conditions: in vivo, 672 h
[23] = tested on: Rattus norvegicus; assay: Toxicity in […] model assessed as serum AST level at 50 mg/kg, po qd for 31 days measured on day 32 (reference value: 180 +/- 26 U/L); format: organism-based; conditions: in vivo, 744 h
[24] = tested on: Rattus norvegicus; assay: Toxicity in […] chronic ob/ob model assessed as serum creatinine level at 50 mg/kg, po qd for 31 days measured on day 32 (reference value: 0.55 +/- 0.018 mg/dl); format: organism-based; conditions: in vivo, 744 h
[25] = tested on: Rattus norvegicus; assay: Increase in PCK1 mRNA expression in epididymal white adipose tissue of Zucker rat sub-chronic fa/fa prediabetic model at 10 mg/kg, po qd for 15 days by RT-PCR method; format: functional, organism-based
[26] = tested on: Rattus norvegicus; assay: Increase in ADIPOQ mRNA expression in epididymal white adipose tissue of Zucker rat sub-chronic fa/fa prediabetic model at 10 mg/kg, po qd for 15 days by RT-PCR method; format: functional, organism-based
[27] = tested on: Rattus norvegicus; assay: Effect on IDH3B gene expression in epididymal white adipose tissue of Zucker rat sub-chronic fa/fa prediabetic model at 10 mg/kg, po qd for 15 days by microarray analysis relative to control; format: functional
[28] = tested on: Rattus norvegicus; assay: Effect on DLST gene expression in epididymal white adipose tissue of Zucker rat sub-chronic fa/fa prediabetic model at 10 mg/kg, po qd for 15 days by microarray analysis relative to control; format: functional
[29] = tested on: Rattus norvegicus; assay: Effect on ATP5C1 gene expression in epididymal white adipose tissue of Zucker rat sub-chronic fa/fa prediabetic model at 10 mg/kg, po qd for 15 days by microarray analysis relative to control; format: functional
[30] = tested on: Rattus norvegicus; assay: Effect on HADHB gene expression in epididymal white adipose tissue of Zucker rat sub-chronic fa/fa prediabetic model at 10 mg/kg, po qd for 15 days by microarray analysis relative to control; format: functional
[31] = tested on: Rattus norvegicus; assay: Effect on NFKB1 gene expression in epididymal white adipose tissue of Zucker rat sub-chronic fa/fa prediabetic model at 10 mg/kg, po qd for 15 days by microarray analysis relative to control; format: functional
[32] = tested on: Rattus norvegicus; assay: Effect on SFN gene expression in epididymal white adipose tissue of Zucker rat sub-chronic fa/fa prediabetic model at 10 mg/kg, po qd for 15 days by microarray analysis relative to control; format: functional
[33] = tested on: Rattus norvegicus; assay: Effect on THEM4 gene expression in epididymal white adipose tissue of Zucker rat sub-chronic fa/fa prediabetic model at 10 mg/kg, po qd for 15 days by microarray analysis relative to control; format: functional
[34] = tested on: Rattus norvegicus; assay: Effect on ME1 gene expression in epididymal white adipose tissue of Zucker rat sub-chronic fa/fa prediabetic model at 10 mg/kg, po qd for 15 days by microarray analysis relative to control; format: functional
[35] = tested on: Rattus norvegicus; assay: Effect on GHR gene expression in epididymal white adipose tissue of Zucker rat sub-chronic fa/fa prediabetic model at 10 mg/kg, po qd for 15 days by microarray analysis relative to control; format: functional

Chain of Estrogen receptor beta (Q92731 whole entry): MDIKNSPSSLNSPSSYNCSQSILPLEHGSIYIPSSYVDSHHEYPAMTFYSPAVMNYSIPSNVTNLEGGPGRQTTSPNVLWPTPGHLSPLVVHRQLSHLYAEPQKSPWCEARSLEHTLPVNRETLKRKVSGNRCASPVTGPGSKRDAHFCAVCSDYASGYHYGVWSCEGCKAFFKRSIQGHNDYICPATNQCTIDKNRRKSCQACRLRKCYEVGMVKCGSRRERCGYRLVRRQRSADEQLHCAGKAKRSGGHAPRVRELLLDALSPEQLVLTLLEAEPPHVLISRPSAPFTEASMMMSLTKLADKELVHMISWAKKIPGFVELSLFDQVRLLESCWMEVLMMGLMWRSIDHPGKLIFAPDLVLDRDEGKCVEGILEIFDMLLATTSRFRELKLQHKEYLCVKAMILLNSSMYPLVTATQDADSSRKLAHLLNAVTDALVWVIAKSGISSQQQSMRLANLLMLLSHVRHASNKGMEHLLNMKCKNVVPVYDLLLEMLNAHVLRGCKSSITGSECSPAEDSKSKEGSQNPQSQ

CN1CC[C@@H](N2C(=O)S/C(=C\c3ccc4c(cnn4Cc4ccc(Cl)cc4C(F)(F)F)c3)C2=O)[C@H](F)C1
Activity [1]: -67% | IC50 [2]: > 10 µM | inhibition [3]: 69% | Vd [4]: 11.2 L/kg | Cmax [5]: 683 ng/mL | Tmax [6]: 2.5 h | AUC(0-t) at 24 h [7]: 34500 ng·h/mL | Activity [8]: 23% | Cmax [9]: 8380 ng/mL | AUC at 24 h [10]: 3200 ng·h/mL | Activity [11]: 561 g | Activity [12]: 1067 g | Activity [13]: 16.9 g | Activity [14]: 19.1 g | Activity [15]: 158 U/L | Activity [16]: 98 U/L | Activity [17]: 0.57 mg/dL | Activity [18]: 134 mg/dL | Activity [19]: 5% | Cmax [20]: 223 ng/mL | Activity [21]: 43.5 g | Activity [22]: 159.1 g | Activity [23]: 199 U/L | Activity [24]: 0.43 mg/dL | Activity [25]: Active | Activity [26]: Active | fold change (FC) [27]: 1.655 | fold change (FC) [28]: 1.352 | fold change (FC) [29]: 1.239 | fold change (FC) [30]: 1.349 | fold change (FC) [31]: -1.254 | fold change (FC) [32]: -1.468 | fold change (FC) [33]: 1.465 | fold change (FC) [34]: 2.409 | fold change (FC) [35]: 1.276
